Reference: PMC6325233, “A Novel Actin Binding Drug with In Vivo Efficacy” (Antimicrobial Agents and Chemotherapy, 2018)
In brackets after ≈: the same amount, converted by molar mass. Where two headings read alike, the source gives them in different places.

What was measured:
[1] = system: Trichophyton mentagrophytes 10207; assay: MIC susceptibility testing (itraconazole-resistant strain); type: cell-based; conditions: Trichophyton mentagrophytes, 10207, CLSI M38-A2
Procedure: (§1) Occidiofungin was purified from a liquid culture of Burkholderia contaminans MS14 as previously described ([21]). MIC susceptibility testing was performed according to the CLSI M27-A3 and M38-A2 standards for the susceptibility testing of yeasts and filamentous fungi, respectively. S. cerevisiae deletion mutants were obtained from the commercially available BY4741 deletion library (Thermo Scientific).

[2] = system: Trichophyton rubrum 11199; assay: MIC susceptibility testing (terbinafine-resistant strain); type: cell-based; conditions: Trichophyton rubrum, 11199, CLSI M38-A2
Procedure: as §1

Candida albicans 28200 = assay: MIC susceptibility testing; type: cell-based; conditions: Candida albicans, 28200; CLSI M27-A3; read-out: Fluconazole MIC
Procedure: as §1

Candida glabrata 28271 = assay: MIC susceptibility testing; type: cell-based; conditions: Nakaseomyces glabratus, 28271, read-out: Fluconazole MIC
Procedure: as §1

Candida krusei 28570 = assay: MIC susceptibility testing; type: cell-based; conditions: Pichia kudriavzevii, 28570; CLSI M27-A3; read-out: Fluconazole MIC
Procedure: as §1

[3] = system: Candida parapsilosis 28364; assay: MIC susceptibility testing; type: cell-based; conditions: Lodderomyces parapsilosis, 28364; CLSI M27-A3; read-out: Fluconazole MIC
Procedure: as §1

Candida tropicalis 28272 = assay: MIC susceptibility testing; type: cell-based; conditions: Candida tropicalis, 28272; CLSI M27-A3; read-out: Fluconazole MIC
Procedure: as §1

Candida tropicalis 28478 = assay: MIC susceptibility testing; type: cell-based; conditions: Candida tropicalis, 28478; CLSI M27-A3; read-out: Fluconazole MIC
Procedure: as §1

[4] = system: Trichophyton mentagrophytes 28556; assay: MIC susceptibility testing; type: cell-based; conditions: Trichophyton mentagrophytes, 28556, CLSI M38-A2
Procedure: as §1

[5] = system: Trichophyton mentagrophytes 28641; assay: MIC susceptibility testing; type: cell-based; conditions: Trichophyton mentagrophytes, 28641, CLSI M38-A2
Procedure: as §1

[6] = system: Trichophyton rubrum 28658; assay: MIC susceptibility testing; type: cell-based; conditions: Trichophyton rubrum, 28658, CLSI M38-A2
Procedure: as §1

[7] = system: Trichophyton rubrum 28659; assay: MIC susceptibility testing; type: cell-based; conditions: Trichophyton rubrum, 28659, CLSI M38-A2
Procedure: as §1

Candida albicans 28102 = assay: MIC susceptibility testing; type: cell-based; conditions: Candida albicans, 28102; CLSI M27-A3; read-out: Fluconazole MIC
Procedure: as §1

Candida glabrata 25742 = assay: MIC susceptibility testing; type: cell-based; conditions: Nakaseomyces glabratus, 25742; CLSI M27-A3; read-out: Fluconazole MIC
Procedure: as §1

Candida krusei 9541 = assay: MIC susceptibility testing; type: cell-based; conditions: Pichia kudriavzevii, 9541; CLSI M27-A3; read-out: Fluconazole MIC
Procedure: as §1

[8] = system: Candida parapsilosis 28174; assay: MIC susceptibility testing; type: cell-based; conditions: Lodderomyces parapsilosis, 28174; CLSI M27-A3; read-out: Fluconazole MIC
Procedure: as §1

Candida tropicalis 9624 = assay: MIC susceptibility testing; type: cell-based; conditions: Candida tropicalis, 9624; CLSI M27-A3; read-out: Fluconazole MIC
Procedure: as §1

[9] = system: Cryptococcus neoformans 27708; assay: MIC susceptibility testing; type: cell-based; conditions: Cryptococcus neoformans, 27708; CLSI M27-A3; read-out: Fluconazole MIC
Procedure: as §1

[10] = system: Cryptococcus neoformans 28446; assay: MIC susceptibility testing; type: cell-based; conditions: Cryptococcus neoformans, 28446; CLSI M27-A3; read-out: Fluconazole MIC
Procedure: as §1

Candida albicans 23512 = assay: MIC susceptibility testing (fluconazole-resistant strain); type: cell-based; conditions: Candida albicans, 23512; CLSI M27-A3
Procedure: as §1

Candida glabrata 27243 = assay: as above; type: cell-based; conditions: Nakaseomyces glabratus, 27243; CLSI M27-A3
Procedure: as §1

Candida krusei 28415 = assay: as above; type: cell-based; conditions: Pichia kudriavzevii, 28415; CLSI M27-A3
Procedure: as §1

[11] = system: Candida parapsilosis 2006; assay: MIC susceptibility testing (caspofungin-resistant strain); type: cell-based; conditions: Lodderomyces parapsilosis, 2006; CLSI M27-A3; read-out: Fluconazole MIC
Procedure: as §1

[12] = system: Cryptococcus neoformans 19526; assay: as above; type: cell-based; conditions: Cryptococcus neoformans, 19526; CLSI M27-A3; read-out: Fluconazole MIC
Procedure: as §1

[13] = system: Aspergillus fumigatus 28436; assay: MIC susceptibility testing; type: cell-based; conditions: Aspergillus fumigatus, 28436; CLSI M38-A2; read-out: Voriconazole MIC
Procedure: as §1

Fusarium solani 18749 = assay: MIC susceptibility testing; type: cell-based; conditions: Fusarium solani, 18749; CLSI M38-A2; read-out: Voriconazole MIC
Procedure: as §1

[14] = system: Mucor circinelloides 19445; assay: MIC susceptibility testing; type: cell-based; conditions: Mucor circinelloides, 19445; CLSI M38-A2; read-out: Voriconazole MIC
Procedure: as §1

Aspergillus flavus 28445 = assay: MIC susceptibility testing; type: cell-based; conditions: Aspergillus flavus, 28445; CLSI M38-A2; read-out: Voriconazole MIC
Procedure: as §1

Aspergillus flavus 28455 = assay: MIC susceptibility testing; type: cell-based; conditions: Aspergillus flavus, 28455; CLSI M38-A2; read-out: Voriconazole MIC
Procedure: as §1

Aspergillus flavus 28517 = assay: MIC susceptibility testing; type: cell-based; conditions: Aspergillus flavus, 28517; CLSI M38-A2; read-out: Voriconazole MIC
Procedure: as §1

[15] = system: Aspergillus fumigatus 28434; assay: MIC susceptibility testing; type: cell-based; conditions: Aspergillus fumigatus, 28434; CLSI M38-A2; read-out: Voriconazole MIC
Procedure: as §1

[16] = system: Aspergillus fumigatus 28435; assay: MIC susceptibility testing; type: cell-based; conditions: Aspergillus fumigatus, 28435; CLSI M38-A2; read-out: Voriconazole MIC
Procedure: as §1

Fusarium oxysporum 27718 = assay: MIC susceptibility testing; type: cell-based; conditions: Fusarium oxysporum, 27718; CLSI M38-A2; read-out: Voriconazole MIC
Procedure: as §1

Fusarium solani 28386 = assay: MIC susceptibility testing; type: cell-based; conditions: Fusarium solani, 28386; CLSI M38-A2; read-out: Voriconazole MIC
Procedure: as §1

Mucor fragilis 27782 = assay: MIC susceptibility testing; type: cell-based; conditions: Mucor fragilis, 27782; CLSI M38-A2; read-out: Voriconazole MIC
Procedure: as §1

Mucor racemosus 27784 = assay: MIC susceptibility testing; type: cell-based; conditions: Mucor racemosus, 27784; CLSI M38-A2; read-out: Voriconazole MIC
Procedure: as §1

[17] = system: Rhizopus microsporus 27785; assay: MIC susceptibility testing; type: cell-based; conditions: Rhizopus microsporus, 27785; CLSI M38-A2; read-out: Voriconazole MIC
Procedure: as §1

[18] = system: Rhizopus microsporus 28506; assay: MIC susceptibility testing; type: cell-based; conditions: Rhizopus microsporus, 28506; CLSI M38-A2; read-out: Voriconazole MIC
Procedure: as §1

Rhizopus oryzae 28403 = assay: MIC susceptibility testing; type: cell-based; conditions: Rhizopus arrhizus, 28403; CLSI M38-A2; read-out: Voriconazole MIC
Procedure: as §1

[19] = system: Candida albicans strain ATCC 66027; conditions: cited from earlier work
Procedure: Therefore, additional studies related to the perturbation of actin-based functions were performed to confirm that actin was the biological target of occidiofungin. As a dimorphic fungus, C. albicans can grow as a yeast or hypha, and the ability to switch between these forms is linked to the pathogenicity of the organism ([29]). Several reports have established that actin cables play an important role in the switch between yeast and hyphal forms ([30], [31]). The impact of ...

[20] = target: rabbit skeletal muscle filamentous actin (F-actin) (rabbit) (UniProt P68135); assay: co-sedimentation
[21] = target: rabbit skeletal muscle filamentous actin (F-actin) (rabbit) (UniProt P68135); assay: co-sedimentation; F-actin 200 nM; occidiofungin 25 to 25,600 nM or phalloidin 25 to 800 nM; 5 mM Tris-HCl pH 8.0, 0.2 mM ATP, 2 mM MgCl2; 30 min at room temperature; 100,000 rpm, 4°C, 20 min; free and bound ligand quantified by mass spectrometry; Langmuir isotherm; macroscopic Kd

OC(Cn1cncn1)(Cn1cncn1)c1ccc(F)cc1F [Fluconazole, fluconazole, reference compound]
MIC ([1]; read-out: Fluconazole MIC): > 16 µg/mL | MIC ([2]; read-out: Fluconazole MIC): 0.25 µg/mL (≈ 0.816 µM) | MIC (Candida albicans 28200): 8 µg/mL (≈ 26.1 µM) | MIC (Candida glabrata 28271): > 64 µg/mL | MIC (Candida krusei 28570): 16 µg/mL (≈ 52.2 µM) | MIC [3]: 0.25 µg/mL (≈ 0.816 µM) | MIC (Candida tropicalis 28272): 0.125 µg/mL (≈ 0.408 µM) | MIC (Candida tropicalis 28478): 0.125 µg/mL (≈ 0.408 µM) | MIC ([4]; read-out: Fluconazole MIC): > 16 µg/mL | MIC ([5]; read-out: Fluconazole MIC): 16 µg/mL (≈ 52.2 µM) | MIC ([6]; read-out: Fluconazole MIC): 2 µg/mL (≈ 6.53 µM) | MIC ([7]; read-out: Fluconazole MIC): 2 µg/mL (≈ 6.53 µM) | MIC (Candida albicans 28102): 0.125 µg/mL (≈ 0.408 µM) | MIC (Candida glabrata 25742): 4 µg/mL (≈ 13.1 µM) | MIC (Candida krusei 9541): 16 µg/mL (≈ 52.2 µM) | MIC [8]: 0.25 µg/mL (≈ 0.816 µM) | MIC (Candida tropicalis 9624): 0.25 µg/mL (≈ 0.816 µM) | MIC [9]: 2 µg/mL (≈ 6.53 µM) | MIC [10]: 4 µg/mL (≈ 13.1 µM) | MIC (Candida albicans 23512): 32 µg/mL (≈ 104 µM) | MIC (Candida glabrata 27243): 64 µg/mL (≈ 209 µM) | MIC (Candida krusei 28415): 64 µg/mL (≈ 209 µM) | MIC [11]: 0.125 µg/mL (≈ 0.408 µM) | MIC [12]: 4 µg/mL (≈ 13.1 µM)

C[C@@H](c1ncncc1F)[C@](O)(Cn1cncn1)c1ccc(F)cc1F [Voriconazole, voriconazole, reference compound]
MIC ([1]; read-out: Voriconazole MIC): 0.25 µg/mL (≈ 0.716 µM) | MIC ([2]; read-out: Voriconazole MIC): 0.008 µg/mL (≈ 0.0229 µM) | MIC [13]: 1 µg/mL (≈ 2.86 µM) | MIC (Fusarium solani 18749): > 16 µg/mL | MIC [14]: > 16 µg/mL | MIC ([4]; read-out: Voriconazole MIC): 0.06 µg/mL (≈ 0.172 µM) | MIC ([5]; read-out: Voriconazole MIC): 0.06 µg/mL (≈ 0.172 µM) | MIC ([6]; read-out: Voriconazole MIC): 0.03 µg/mL (≈ 0.0859 µM) | MIC ([7]; read-out: Voriconazole MIC): 0.03 µg/mL (≈ 0.0859 µM) | MIC (Aspergillus flavus 28445): 2 µg/mL (≈ 5.73 µM) | MIC (Aspergillus flavus 28455): 2 µg/mL (≈ 5.73 µM) | MIC (Aspergillus flavus 28517): 1 µg/mL (≈ 2.86 µM) | MIC [15]: 1 µg/mL (≈ 2.86 µM) | MIC [16]: 1 µg/mL (≈ 2.86 µM) | MIC (Fusarium oxysporum 27718): > 16 µg/mL | MIC (Fusarium solani 28386): > 16 µg/mL | MIC (Mucor fragilis 27782): > 16 µg/mL | MIC (Mucor racemosus 27784): > 16 µg/mL | MIC [17]: > 16 µg/mL | MIC [18]: 16 µg/mL (≈ 45.8 µM) | MIC (Rhizopus oryzae 28403): > 16 µg/mL

C=C1[C@@H](C)[C@H]2[C@H](Cc3ccccc3)NC(=O)[C@]23OC(=O)/C=C/C(=O)CCC[C@@H](C)C/C=C/[C@H]3[C@@H]1O [cytochalasin A]
effect on hyphal formation [19]: prevent hyphal formation

C/C1=C/C(=O)O[C@@H]2C[C@@H](CC[C@H](C)/C=C\C=C\CC1)O[C@@](O)([C@@H]1CSC(=O)N1)C2 [latrunculin A]
effect on hyphal formation [19]: prevent hyphal formation

Occidiofungin (peptide)
Kd [20]: 1000 nM | stoichiometry N (occidiofungin per actin monomer) [20]: 24

Phalloidin (peptide)
Kd [21]: 8 nM | stoichiometry N (phalloidin per actin monomer) [21]: 0.6
